Read-outs that look alike come from different tables or passages of the source.
Experiments:
KU812 tumours = conditions: 50 mg/kg/day for 5 days; cited from earlier work
RET [1] = molecular target: T1, RET (Homo sapiens (Human), UniProt P07949); test: biochemical; conditions: read-out: RET residual activity (%) at 1 μM, 1 μM
[2] = Screening PK in mice after 30 mg/kg po; conditions: mouse, in vivo
RET [3] = molecular target: T1, RET
MDR1 (P-gp) = MDR1 (P-gp) (Homo sapiens (Human), UniProt P08183); test: in vitro; conditions: dog, MDCK-MDR1, MDCK-MDR1 cells
hERG potassium channel = hERG potassium channel (Homo sapiens (Human), UniProt Q12809); conditions: cited from earlier work
[4] = human, in vivo; cited from earlier work
[5] = cited from earlier work
HCK = HCK (Homo sapiens (Human), UniProt P08631); format: biochemical; conditions: Kinase Profiler
[6] = Full pharmacokinetic study in mice; conditions: mouse, in vivo
in vitro [7] = conditions: dog, MDCK, MDCK-wild type cells
K562 CML cells = conditions: 10 mg/kg/day; cited from earlier work
[8] = microsomes
CSF1R = CSF1R (Homo sapiens (Human), UniProt P07333); format: biochemical; conditions: Kinase Profiler
Sequence of CSF1R (P07333 20-972 limits assumed): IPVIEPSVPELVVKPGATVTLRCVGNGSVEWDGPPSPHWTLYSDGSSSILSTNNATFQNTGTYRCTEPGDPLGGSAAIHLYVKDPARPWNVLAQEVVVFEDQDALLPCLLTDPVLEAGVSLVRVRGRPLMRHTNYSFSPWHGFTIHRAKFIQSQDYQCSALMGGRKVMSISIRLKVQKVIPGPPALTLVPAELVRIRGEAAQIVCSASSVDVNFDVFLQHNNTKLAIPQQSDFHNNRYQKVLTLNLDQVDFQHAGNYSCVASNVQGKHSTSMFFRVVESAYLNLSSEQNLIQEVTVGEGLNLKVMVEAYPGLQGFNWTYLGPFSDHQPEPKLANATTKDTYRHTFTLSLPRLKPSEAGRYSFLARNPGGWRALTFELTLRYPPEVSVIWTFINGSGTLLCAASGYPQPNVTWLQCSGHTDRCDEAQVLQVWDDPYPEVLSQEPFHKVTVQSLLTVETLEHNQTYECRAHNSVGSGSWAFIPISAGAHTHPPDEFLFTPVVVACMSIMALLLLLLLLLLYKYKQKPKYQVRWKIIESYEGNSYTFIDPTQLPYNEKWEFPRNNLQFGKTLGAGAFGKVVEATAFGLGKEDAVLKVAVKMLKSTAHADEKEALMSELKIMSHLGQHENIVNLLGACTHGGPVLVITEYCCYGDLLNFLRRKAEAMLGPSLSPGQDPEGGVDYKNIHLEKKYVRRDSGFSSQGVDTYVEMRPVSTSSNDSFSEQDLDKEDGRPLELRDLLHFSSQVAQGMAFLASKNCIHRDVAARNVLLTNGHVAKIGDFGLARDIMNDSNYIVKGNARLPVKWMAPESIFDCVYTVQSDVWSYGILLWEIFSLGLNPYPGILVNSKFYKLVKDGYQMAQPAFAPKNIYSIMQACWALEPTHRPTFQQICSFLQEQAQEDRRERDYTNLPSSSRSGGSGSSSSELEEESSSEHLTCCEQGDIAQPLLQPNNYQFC

in vitro [9] = conditions: mouse, microsomes
in vivo = conditions: male, CD1, mouse, po, 30 mg/kg
MV4-11 cell line = test: Growth inhibition (GI50) of AML cell lines; format: cell-based; conditions: Homo sapiens, MV4-11, read-out: GI50 against MV4-11 cell line
[10] = in vivo
[11] = test system: MC38 colorectal carcinoma tumours; test: MC38 syngeneic mouse tumour model (Example 8.1); conditions: MC38; 100 mg/Kg, BID po
[12] = test system: NFKB activity in PANC-1 cells; test: TNF-induced NFKB activity (NFKB-dependent luciferase reporter); conditions: 10 ng/ml rHuTNF
HCT116 cells = test: TNF-sensitised cell viability assay (CellTiter-Glo); conditions: Homo sapiens, HCT-116, read-out: HCT116 IC50 (at 10 ng/ml rHuTNF)
[13] = Mouse hepatocyte stability; format: in vitro ADME; conditions: hepatocytes
[14] = Murine plasma protein binding
[15] = test system: MC38 murine tumour cell line; test: TNF-sensitised cell viability assay (CellTiter-Glo); conditions: Mus musculus
[16] = test system: HDAC4 phosphorylation in PANC-1 cells; test: HDAC4 phosphorylation (Meso Scale Discovery assay); conditions: 10 ng/mL rHuTNF
[17] = test system: NFKB activity in MC38 cells; test: TNF-induced NFKB activity (NFKB-dependent luciferase reporter); conditions: 10 ng/ml rMuTNF
HEL cell line [18] = test: Growth inhibition (GI50) of AML cell lines; format: cell-based; conditions: Homo sapiens, pMEF2C-negative, read-out: GI50 against HEL cell line
[19] = Human hepatocyte stability; format: in vitro ADME; conditions: human, hepatocytes
in vitro [20] = conditions: human, microsomes
[21] = Plasma stability in human plasma; format: in vitro ADME; conditions: read-out: plasma stability T1/2
[22] = Plasma stability in mouse plasma; format: in vitro ADME; conditions: read-out: plasma stability T1/2
[23] = Human plasma-protein binding
[24] = Metabolite profile in hepatocytes / in vivo
From the text: Metabolites are identified using high-resolution mass spectrometry.

HEL cell line [25] = test: Cell killing of pMEF2C-negative HEL cell line; format: cell-based
KASUMI-1 cell line [26] = test: Growth inhibition (GI50) of AML cell lines; format: cell-based
[27] = microsomes, 40 min
KASUMI-1 cell line [28] = test: Cell killing of pMEF2C-positive KASUMI-1 cell line; format: cell-based
panel of AML cell lines = test: Lysis of a panel of AML cell lines; format: cell-based; conditions: cell lines that have phosphorylated MEF2C protein
K562 human CML tumours = conditions: PO once a day for 10 days, 5-days-on and 2-days off; cited from earlier work

T1 sequence (P07949 29-1114 limits assumed): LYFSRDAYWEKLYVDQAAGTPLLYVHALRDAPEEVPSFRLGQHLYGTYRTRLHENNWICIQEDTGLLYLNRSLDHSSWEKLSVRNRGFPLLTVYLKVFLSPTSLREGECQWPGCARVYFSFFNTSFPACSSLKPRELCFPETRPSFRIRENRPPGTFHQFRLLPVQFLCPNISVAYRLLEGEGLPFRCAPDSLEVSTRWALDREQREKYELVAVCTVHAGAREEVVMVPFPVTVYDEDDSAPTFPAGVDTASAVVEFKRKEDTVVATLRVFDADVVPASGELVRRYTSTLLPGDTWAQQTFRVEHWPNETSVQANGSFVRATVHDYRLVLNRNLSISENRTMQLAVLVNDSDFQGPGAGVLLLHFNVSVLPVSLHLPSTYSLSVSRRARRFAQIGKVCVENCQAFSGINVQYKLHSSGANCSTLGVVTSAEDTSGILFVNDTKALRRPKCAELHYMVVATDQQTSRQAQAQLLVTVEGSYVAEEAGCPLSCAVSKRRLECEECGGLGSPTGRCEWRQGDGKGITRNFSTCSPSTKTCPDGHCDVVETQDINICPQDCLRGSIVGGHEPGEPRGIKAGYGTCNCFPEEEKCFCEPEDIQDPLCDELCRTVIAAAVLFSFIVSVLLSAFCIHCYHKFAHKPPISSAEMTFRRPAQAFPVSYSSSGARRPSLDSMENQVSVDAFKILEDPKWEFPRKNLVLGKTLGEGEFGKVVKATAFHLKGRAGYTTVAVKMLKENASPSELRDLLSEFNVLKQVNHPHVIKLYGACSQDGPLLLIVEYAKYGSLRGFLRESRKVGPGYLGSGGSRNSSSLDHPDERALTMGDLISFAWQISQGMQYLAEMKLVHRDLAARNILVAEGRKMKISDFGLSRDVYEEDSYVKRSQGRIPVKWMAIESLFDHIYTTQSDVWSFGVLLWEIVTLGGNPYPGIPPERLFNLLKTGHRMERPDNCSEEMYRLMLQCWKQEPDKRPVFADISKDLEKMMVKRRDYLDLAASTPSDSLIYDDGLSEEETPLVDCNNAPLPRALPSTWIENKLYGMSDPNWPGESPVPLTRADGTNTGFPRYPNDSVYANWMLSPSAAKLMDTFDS

Structure (SMILES): Cc1nc(Nc2ncc(C(=O)Nc3c(C)cccc3Cl)s2)cc(N2CCN(CCO)CC2)n1 [Compound A8, N-(2-chloro-6-methylphenyl)-2-((6-(4-(2-hydroxyethyl)piperazin-1-yl)-2-methylpyrimidin-4-yl)amino)thiazole-5-carboxamide]
- outcome in mice bearing large KU812 tumours (KU812 tumours): curative
- remaining activity at 1 µM (RET [1]): < 40%
- Cmax after 2 h [2]: 550 ng/mL
- RET residual activity (%) at 1 μM (RET [3]): 39%
- Papp (MDR1 (P-gp)): 105 ×10⁻⁶ cm/s
- Papp (MDR1 (P-gp); Mean Papp A > B (10^−6 cm/s)): 2.4 ×10⁻⁶ cm/s
- inhibition of hERG currents at 3 uM (hERG potassium channel): about 6%
- inhibition of hERG currents at 10 uM (hERG potassium channel): ~36%
- patients with cardiomyopathy, heart failure congestive, diastolic dysfunction, fatal myocardial infarction, and left ventricular dysfunction [4]: 1.6%
- severe gastrointestinal haemorrhage, including fatalities ([5]; all clinical studies): 4 % of patients
- cardiomyopathy, heart failure congestive, diastolic dysfunction, fatal myocardial infarction, and left ventricular dysfunction ([5]; human, in vivo): 1.6 % of patients
- HCK residual activity (HCK): less than 1%
- Cmax (ng/ml), Total [6]: 550 ng/mL
- Papp (in vitro [7]; Mean Papp A > B (10^−6 cm/s)): 21 ×10⁻⁶ cm/s
- Papp (in vitro [7]; Mean Papp B > B (10^−6 cm/s)): 49 ×10⁻⁶ cm/s
- survival of mice inoculated intracranially with K562 CML cells (K562 CML cells): increased survival

Structure (SMILES): Cc1nc(Nc2ncc(C(=O)Nc3c(C)csc3Cl)s2)cc(N2CCN(CCO)CC2)n1 [Compound C7, N-(2-chloro-4-methylthiophen-3-yl)-2-((6-(4-(2-hydroxyethyl)piperazin-1-yl)-2-methylpyrimidin-4-yl)amino)thiazole-5-carboxamide]
- Human liver microsomal stability, Intrinsic clearance [8]: 2.53e+08 µL/min/mg
- Human liver microsomal stability, % Remaining at 40 min (%) ([8]; 40 min): 1%
- CSF1R residual activity (CSF1R): less than 1%
- half-life (in vitro [9]): 13 min
- microsomal CLint (in vitro [9]): 110 µL/min/mg
- AUC(0-inf) (in vivo): 1.31 µM·h
- AUC(0-t) (in vivo): 1.16 µM·h
- Cmax (in vivo): 474 ng/mL
- MRT last (in vivo): 165 min
- half-life (in vivo): 85.2 min
- GI50 (MV4-11 cell line): 480 nM
- % AUCextrap ([10]; male, CD1, mouse, iv, 1 mg/kg): 5.81%
- % AUCextrap ([10]; male, CD1, mouse, po, 30 mg/kg): 0.45%
- % AUCextrap, Free ([10]; male, CD1, mouse, po, 30 mg/kg): 11.24%
- % AUCextrap, Total ([10]; male, CD1, mouse, po, 30 mg/kg): 11.24%
- AUCinf (nM*h), Free ([10]; male, CD1, mouse, po, 30 mg/kg): 58.79 nM·h
- AUClast (nM*h), Free ([10]; male, CD1, mouse, po, 30 mg/kg): 52.07 nM·h
- Rsq, Free ([10]; mouse, po, 30 mg/kg): 0.99
- Rsq, Total ([10]; mouse, po, 30 mg/kg): 0.99
- Body weight increase (%) [11]: 1.0%
- Non-treatment related death [11]: 3/16
- Tumour growth inhibition (%) [11]: 78%
- Inhibition of NFKB activity (PANC-1) ([12]; PANC-1 reporter cells): +
- Inhibition of NFKB activity ([12]; PANC-1 reporter cells (Table 9C)): +
- IC50 (HCT116 cells): < 100 nM
- half-life [13]: 50 min
- microsomal CLint ([13]; read-out: Mouse hepatocyte stability, Intrinsic clearance): 28 µL/min/mg
- Papp (MDR1 (P-gp); Mean Papp A > B (10^−6 cm/s)): 2 ×10⁻⁶ cm/s
- Murine plasma protein binding, Percentage unbound (%) ([14]; Table 5A): 5%
- Murine plasma protein binding, Percentage unbound (%) ([14]; Table 5.1A): 3%
- recovery at 4 h ([14]; mouse): 87%
- IC50 ([15]; MC-38, read-out: MC38 IC50 (at 100 ng/mL rMuTNF)): < 200 nM
- EC50 ([15]; MC-38, read-out: mean EC50 of sensitising MC38 tumour cells to TNF-mediated killing): ~150 nM
- Inhibition of HDAC4 phosphorylation ([16]; 3 h): +
- Inhibition of HDAC4 phosphorylation ([16]; 3 h (Table 9C)): +
- Inhibition of NFKB activity (MC38) [17]: +
- GI50 (HEL cell line [18]): ~5000 nM
- half-life ([19]; read-out: Human hepatocyte stability, Half-life): 54 min
- microsomal CLint ([19]; read-out: Human hepatocyte stability, Intrinsic clearance): 26 µL/min/mg
- half-life ([19]; read-out: half-life in the presence of human hepatocytes (converted)): ~60 min
- half-life (in vitro [20]): 10 min
- microsomal CLint (in vitro [20]): 142 µL/min/mg
- half-life [21]: > 150 min
- half-life [22]: > 150 min
- Human plasma-protein binding, Percentage unbound (%) ([23]; Table 5A): <1%
- Human plasma-protein binding, Percentage unbound (%) ([23]; Table 5.1A): 2%
- recovery at 4 h ([23]; human): 75%
- quinone-imine reactive metabolite [24]: not observed
- HCK residual activity (HCK): less than 1%
- cell killing (HEL cell line [25]): low cell killing
- tolerable dose (BID by gavage, female C57BL/6, seven days): up to 100 mg/kg
- HRD in vivo @BID (highest recommended dose, BID): 100 mg/kg
- HRD in vivo @QD (highest recommended dose, QD): 100 mg/kg
- GI50 (KASUMI-1 cell line [26]; Homo sapiens, Kasumi 1, read-out: GI50 against KASUMI-1 cell line, pMEF2C-positive): ~2 nM
- GI50 (KASUMI-1 cell line [26]; read-out: GI50 against KASUMI-1 cell line, pMEF2C-positive): 1.6 nM
- Papp (in vitro [7]; Mean Papp A > B (10^−6 cm/s)): 9 ×10⁻⁶ cm/s
- Mouse liver microsomal stability, % Remaining at 40 min (%) [27]: 10%
- cell killing (KASUMI-1 cell line [28]): highly potent cell killing
- lysis of AML cell lines (panel of AML cell lines): strong lysis

Structure (SMILES): Cc1ccc(NC(=O)c2ccc(CN3CCN(C)CC3)cc2)cc1Nc1nccc(-c2cccnc2)n1 [imatinib]
- outcome in mice bearing K562 human CML tumours (K562 human CML tumours): failed to produce a comparative response

Reference: patent US20230348453A1, “HALOGENATED-HETEROARYL AND OTHER HETEROCYCLIC KINASE INHIBITORS, AND USES THEREOF” (iOmx Therapeutics AG, priority 2020, published 2023)
